Laboratory results reported in patent publication US20230151025A1, “SUBSTITUTED THIAZOLOPYRIDINES, SALTS THEREOF AND THEIR USE AS HERBICIDALLY ACTIVE SUBSTANCES” (Bayer Aktiengesellschaft, priority 2020, published 2023).

Key:
Format in all cases: in vivo
Lolium rigidum (LOLRI) = assay: Herbicidal post-emergence action (D), 320 g/ha; conditions: ca. 3 weeks
In short: (§1)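 Weeds sown in sandy loam and greenhouse-grown for 2 to 3 weeks, then sprayed at single-leaf stage with WP or EC formulations in water plus 0.5% additive at 600 l water/ha. After ca. 3 weeks, injury scored visually versus untreated controls: 0% = as control, 100% = plants dead.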

Avena fatua = assay: Herbicidal post-emergence action (D), 320 g/ha; conditions: ca. 3 weeks
Description: (§2) Seeds of mono- and dicotyledonous weed plants and crop plants were sown, in plastic or organic planting pots, in sandy loam, covered with soil and grown in a greenhouse under controlled growth conditions. 2 to 3 weeks after sowing, the test plants were sprayed in the single-leaf stage. The compounds according to the invention, formulated in form of wettable powders (WP) or as emulsifiable concentrates (EC), were sprayed onto the green plant parts as aqueous suspension or emulsion, with the addition of 0.5% of an additive, at an application rate of 600 l of water/ha (converted). The test plants were placed in the greenhouse for ca. 3 weeks under optimum growth conditions, and then the effect of the preparations was assessed visually in comparison with untreated controls (herbicidal effect in percent (%): 100% effect=plants have died off, 0% effect=as control plants).
(§3) Tables D1 to D13 below show the effects of selected compounds of the general formula (I) according to table 1 on various harmful plants and an application rate corresponding to 320 g/ha obtained by the experimental procedure mentioned above.

[1] = test system: Abutilon theophrasti (ABUTH); assay: Herbicidal post-emergence action (D), 320 g/ha; conditions: ca. 3 weeks
In short: as §1

[2] = test system: Digitaria sanguinalis (DIGSA); assay: Herbicidal post-emergence action (D), 320 g/ha; conditions: ca. 3 weeks
Description: as §2, §3

Viola tricolor (VIOTR) = assay: Herbicidal post-emergence action (D), 320 g/ha; conditions: ca. 3 weeks
In short: as §1

Stellaria media (STEME) [3] = assay: Herbicidal pre-emergence action (C), 320 g/ha; conditions: visual grading after ca. 3 weeks vs untreated controls, 100% = plants have died off, 0% = as control plants
In short: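 Greenhouse pre-emergence trial with compounds sprayed onto soil above sown seeds in sandy loam (aqueous WP or EC, 0.5% additive, 600 l water/ha); effect scored by eye at roughly 3 weeks as percent damage versus controls.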

Stellaria media (STEME) [4] = assay: Herbicidal post-emergence action (D), 320 g/ha; conditions: ca. 3 weeks
In short: as §1

SMILES	herbicidal effect LOLRI (Lolium rigidum (LOLRI)) [%]	herbicidal effect ABUTH [1] [%]	herbicidal effect DIGSA [2] [%]	other results
CCc1cc2scnc2nc1-c1ccccc1C [Example I-093]	80			
Cc1cc2scnc2nc1-c1ccsc1C [Example I-194]				herbicidal effect AVEFA (Avena fatua): 80%
CCc1cc2scnc2nc1-c1ccccc1F [Example I-023]		80	80	
Fc1ccccc1-c1nc2ncsc2cc1Cl [Example I-017]		80		herbicidal effect VIOTR (Viola tricolor (VIOTR)): 90%
Cc1cc2scnc2nc1-c1sccc1Cl [Example I-137]			90	
Fc1ccccc1-c1ccc2scnc2n1 [Example I-036, 5-(2-fluorophenyl)thiazolo[4,5-b]pyridine]	80			STEME, herbicidal effect in percent (%) (Stellaria media (STEME) [3]): 90%; herbicidal effect STEME (Stellaria media (STEME) [4]): 90%
Cc1cc2scnc2nc1-c1ccccc1 [Example I-041]	80	90	90	
CCc1cc2scnc2nc1-c1ccccc1 [Example I-051]	80		80	
Cc1cc2scnc2nc1-c1ccccc1Cl [Example I-045]	80	90	90	
